Data: ChEMBL document CHEMBL1201862, “PubChem BioAssay data set” (2004)
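Where inhibition never reached the appropriate level, the endpoint shown equals the highest concentration tested. Otherwise, values were interpolated linearly from a five-concentration, 48-hour dose response in 96-well plates. GI50 = concentration required for 50% inhibition of growth.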 The source made the active and inactive calls. No stated cut-off is given here; in the data, active = GI50 up to about 1.1 µM and inactive = higher.

Columns and labels:
Assay in all cases: growth of human tumour cells (NCI), 48 h
BT-549 = system: BT-549
OVCAR-5 = system: OVCAR-5
SN12C = system: SN12C
HOP-62 = system: HOP-62
OVCAR-4 = system: OVCAR-4
SF-295 = system: SF-295
HT-29 = system: HT-29
M14 = system: M14
MDA-N = system: MDA-N
MOLT-4 = system: MOLT-4
MDA-MB-231 = system: MDA-MB-231
SR = system: SR
OVCAR-8 = system: OVCAR-8
UACC-257 = system: UACC-257
SNB-75 = system: SNB-75
NCI-H226 = system: NCI-H226
SF-539 = system: SF-539
SF-268 = system: SF-268
IGROV-1 = system: IGROV-1
HOP-92 = system: HOP-92

Row | Structure (SMILES) | GI50 (BT-549) | GI50 (OVCAR-5) | GI50 (SN12C) | GI50 (HOP-62) | GI50 (OVCAR-4) | GI50 (SF-295) | GI50 (HT-29) | GI50 (M14) | GI50 (MDA-N) | GI50 (MOLT-4) | GI50 (MDA-MB-231) | GI50 (SR) | GI50 (OVCAR-8) | GI50 (UACC-257) | GI50 (SNB-75) | GI50 (NCI-H226) | GI50 (SF-539) | GI50 (SF-268) | GI50 (IGROV-1) | GI50 (HOP-92)
1 | O=C(c1cccc2ccccc12)C1S(=O)(=O)OCCOS1(=O)=O | > 100 µM (inactive) | > 100 µM (inactive) | > 100 µM (inactive) | > 100 µM (inactive) | > 100 µM (inactive) | 0.0151 µM (active) | > 100 µM (inactive) | > 100 µM (inactive) | > 100 µM (inactive) | > 100 µM (inactive) | > 100 µM (inactive) | > 100 µM (inactive) | > 100 µM (inactive) | – | – | – | – | – | – | –
2 | O=C(NCc1ccc(Cl)c(Cl)c1)c1nc2ccccc2nc1NCc1ccc(Cl)c(Cl)c1 | > 100 µM (inactive) | > 100 µM (inactive) | > 100 µM (inactive) | 83.6 µM (inactive) | – | > 100 µM (inactive) | > 100 µM (inactive) | > 100 µM (inactive) | > 100 µM (inactive) | – | > 100 µM (inactive) | > 100 µM (inactive) | > 100 µM (inactive) | > 100 µM (inactive) | > 100 µM (inactive) | > 100 µM (inactive) | > 100 µM (inactive) | > 100 µM (inactive) | > 100 µM (inactive) | > 100 µM (inactive)
3 | COC(=O)[C@]12C3=C(O)C(=O)C[C@H]1OC[C@H]2C=CC3 | > 100 µM (inactive) | > 100 µM (inactive) | > 100 µM (inactive) | > 100 µM (inactive) | > 100 µM (inactive) | > 100 µM (inactive) | – | > 100 µM (inactive) | > 100 µM (inactive) | – | > 100 µM (inactive) | > 100 µM (inactive) | > 100 µM (inactive) | > 100 µM (inactive) | > 100 µM (inactive) | – | – | > 100 µM (inactive) | > 100 µM (inactive) | > 100 µM (inactive)
4 | CC(C)(C)c1ccc(O)c(CN(Cc2cc(C(C)(C)C)ccc2O)C2CCCCC2)c1 | 19.8 µM (inactive) | 17.7 µM (inactive) | 16.4 µM (inactive) | 18.5 µM (inactive) | 16.9 µM (inactive) | 17.7 µM (inactive) | 16.1 µM (inactive) | 13.6 µM (inactive) | 14.7 µM (inactive) | 17.7 µM (inactive) | 18 µM (inactive) | 18.5 µM (inactive) | 15.9 µM (inactive) | 18.3 µM (inactive) | 23.3 µM (inactive) | – | 17.3 µM (inactive) | 15.7 µM (inactive) | 17.6 µM (inactive) | 16 µM (inactive)
5 | C/C(=C\Cc1ccc(F)cc1)CCCCCC/C(C)=C/Cc1ccc(F)cc1 | 28.6 µM (inactive) | 16.2 µM (inactive) | 15.7 µM (inactive) | 10.5 µM (inactive) | 16.3 µM (inactive) | 10 µM (inactive) | 16.1 µM (inactive) | 17.4 µM (inactive) | 18.5 µM (inactive) | 17.7 µM (inactive) | 17.9 µM (inactive) | 18.3 µM (inactive) | 14.4 µM (inactive) | 18.1 µM (inactive) | 18.7 µM (inactive) | – | 16.7 µM (inactive) | 19.5 µM (inactive) | 4.63 µM (inactive) | 10.2 µM (inactive)
6 | CCC1OC(=O)CC(O)C(C)C(OC2OC(C)C(O)C(N(C)C)C2O)C(CC=O)CC(C)C(=O)/C=C/C2(C)OC2C1C (stereo not drawn) | 37.3 µM (inactive) | 47.3 µM (inactive) | 15.1 µM (inactive) | 33.4 µM (inactive) | 55.1 µM (inactive) | 67.9 µM (inactive) | 20.2 µM (inactive) | 18.6 µM (inactive) | 24.4 µM (inactive) | 14.1 µM (inactive) | 24 µM (inactive) | 13.5 µM (inactive) | 3.19 µM (inactive) | 17.3 µM (inactive) | 23.5 µM (inactive) | > 100 µM (inactive) | 25.2 µM (inactive) | 24.9 µM (inactive) | 23.1 µM (inactive) | –
7 | CNC(=S)NNc1ncnc2c1ncn2-c1ccc(C)cc1 | > 100 µM (inactive) | > 100 µM (inactive) | > 100 µM (inactive) | > 100 µM (inactive) | > 100 µM (inactive) | > 100 µM (inactive) | > 100 µM (inactive) | > 100 µM (inactive) | > 100 µM (inactive) | > 100 µM (inactive) | 43.9 µM (inactive) | > 100 µM (inactive) | > 100 µM (inactive) | > 100 µM (inactive) | – | > 100 µM (inactive) | > 100 µM (inactive) | > 100 µM (inactive) | > 100 µM (inactive) | > 100 µM (inactive)
8 | Cc1ccc(S(=O)(=O)OCC(=O)O)cc1 | > 100 µM (inactive) | > 100 µM (inactive) | > 100 µM (inactive) | > 100 µM (inactive) | > 100 µM (inactive) | > 100 µM (inactive) | > 100 µM (inactive) | > 100 µM (inactive) | > 100 µM (inactive) | > 100 µM (inactive) | > 100 µM (inactive) | > 100 µM (inactive) | > 100 µM (inactive) | > 100 µM (inactive) | – | – | – | > 100 µM (inactive) | > 100 µM (inactive) | > 100 µM (inactive)
9 | Cc1ccc(C)n1-c1ccccc1C1C=Cn2c3c1c(=O)c(OC(C)C)c(OC(C)C)c-3n[nH]c2=O (stereo not drawn) | 32.7 µM (inactive) | > 100 µM (inactive) | 42 µM (inactive) | 40 µM (inactive) | 38.9 µM (inactive) | 27 µM (inactive) | 19.9 µM (inactive) | 25.1 µM (inactive) | 37.6 µM (inactive) | 6.62 µM (inactive) | 33.6 µM (inactive) | – | 33.7 µM (inactive) | 32.6 µM (inactive) | 25.4 µM (inactive) | 21.4 µM (inactive) | 58.3 µM (inactive) | 59.2 µM (inactive) | 30.1 µM (inactive) | 84.7 µM (inactive)
10 | CNC(=O)CNC(=O)N(C[C@@H]1CCCN1C(=O)[C@H](CC(C)C)NC(=O)OC(C)(C)C)C(C)C | > 100 µM (inactive) | > 100 µM (inactive) | > 100 µM (inactive) | > 100 µM (inactive) | > 100 µM (inactive) | > 100 µM (inactive) | > 100 µM (inactive) | > 100 µM (inactive) | > 100 µM (inactive) | > 100 µM (inactive) | > 100 µM (inactive) | > 100 µM (inactive) | > 100 µM (inactive) | – | > 100 µM (inactive) | > 100 µM (inactive) | – | > 100 µM (inactive) | > 100 µM (inactive) | –
11 | c1cn(C23C4C5C6C4C2C6C53)cn1 (stereo not drawn) | > 100 µM (inactive) | > 100 µM (inactive) | > 100 µM (inactive) | > 100 µM (inactive) | – | > 100 µM (inactive) | > 100 µM (inactive) | > 100 µM (inactive) | > 100 µM (inactive) | > 100 µM (inactive) | > 100 µM (inactive) | > 100 µM (inactive) | > 100 µM (inactive) | > 100 µM (inactive) | > 100 µM (inactive) | > 100 µM (inactive) | > 100 µM (inactive) | > 100 µM (inactive) | > 100 µM (inactive) | –
12 | CN(N)c1cc(=O)[nH]c(=O)[nH]1 | 0.03 µM (active) | – | > 100 µM (inactive) | > 100 µM (inactive) | > 100 µM (inactive) | > 100 µM (inactive) | > 100 µM (inactive) | – | > 100 µM (inactive) | > 100 µM (inactive) | > 100 µM (inactive) | > 100 µM (inactive) | > 100 µM (inactive) | > 100 µM (inactive) | – | > 100 µM (inactive) | > 100 µM (inactive) | > 100 µM (inactive) | > 100 µM (inactive) | –
13 | OCC1=C[C@@](COCc2ccccc2)(OCc2ccccc2)[C@@H](OCc2ccccc2)[C@@H]1OCc1ccccc1 | 24.7 µM (inactive) | 26.3 µM (inactive) | 2.86 µM (inactive) | 24.2 µM (inactive) | 21.4 µM (inactive) | 13.2 µM (inactive) | 12.7 µM (inactive) | 23.9 µM (inactive) | 17.2 µM (inactive) | 4.57 µM (inactive) | 9.08 µM (inactive) | 12.2 µM (inactive) | 36.2 µM (inactive) | 22.6 µM (inactive) | – | 15.5 µM (inactive) | – | 11.6 µM (inactive) | 7.01 µM (inactive) | –
14 | O=C1N/C(=N/N=C/C(O)C(O)C(O)C(O)CO)N/C1=C\c1cccs1 (stereo not drawn) | > 100 µM (inactive) | > 100 µM (inactive) | > 100 µM (inactive) | > 100 µM (inactive) | > 100 µM (inactive) | > 100 µM (inactive) | > 100 µM (inactive) | > 100 µM (inactive) | > 100 µM (inactive) | > 100 µM (inactive) | > 100 µM (inactive) | – | > 100 µM (inactive) | > 100 µM (inactive) | > 100 µM (inactive) | > 100 µM (inactive) | > 100 µM (inactive) | > 100 µM (inactive) | > 100 µM (inactive) | > 100 µM (inactive)
15 | O=[N+]([O-])c1ccc(Cl)cc1N/N=C/c1cccc2cccnc12 | > 100 µM (inactive) | – | > 100 µM (inactive) | > 100 µM (inactive) | 92.7 µM (inactive) | > 100 µM (inactive) | > 100 µM (inactive) | > 100 µM (inactive) | > 100 µM (inactive) | 39.7 µM (inactive) | > 100 µM (inactive) | 15.3 µM (inactive) | 48.2 µM (inactive) | > 100 µM (inactive) | 59.2 µM (inactive) | – | 95.1 µM (inactive) | > 100 µM (inactive) | > 100 µM (inactive) | –
